“Also recorded” adds a separate entry of the source.
Key:
[1] = opicapone pivotal trials; average; cited from earlier work
[2] = 12-hour levodopa plasma pharmacokinetics; type: in vivo, human (patients with PD)
Experimental: The study design is illustrated in Figure 1.
Pharmacokinetic evaluation occurred over 12 hours with sampling every 30 minutes, except for the last sample following each LD dose in the opicapone plus four LD intake regimen, which was sampled at 1 hour. The main pharmacokinetics parameters assessed included maximum observed plasma concentration (Cmax), time to achieve peak plasma levels (tmax), minimum observed plasma concentration (Cmin), plasma elimination half‐life (t1/2), area under the curve (AUC), and fluctuation index (FI; as an expression of peak‐to‐trough fluctuation, Cmax, and Cmin, relative to average concentration [Cavg]). The pharmacokinetics of the LD metabolite 3‐O‐methyldopa (3‐OMD) was also evaluated.
Descriptive statistics were used to summarize the pharmacokinetics parameters for LD and 3‐OMD for each of the three regimens. […] No formal comparison was performed between opicapone regimens.

[3] = opicapone 50 mg added to LD/CD 400/100 mg (both regimens) vs LD/CD 500/125 mg without opicapone

Which “reduction of off time relative to placebo” value [1] does the source give for `Cc1c(Cl)c(C)[n+]([O-])c(Cl)c1-c1noc(-c2cc(O)c(O)c([N+](=O)[O-])c2)n1` [opicapone] here?
The value was 1 h.

What about the “effect on LD minimal (trough) concentrations (Cmin)” value [2, 3] of the same compound?
The value was “at least doubled; also recorded: twofold increase”.

What about the “effect on LD plasma half-life (t1/2)” value [2, 3] of the same compound?
Its value is “at least doubled”.

And the “impact on time to reach (tmax) maximum LD concentrations” value ([2]; opicapone 50 mg added to either LD/CD 400/100 mg regimen)?
Its value is “no impact”.

What about the “impact on maximal LD concentrations (Cmax)” value ([2]; opicapone 50 mg added to either LD/CD 400/100 mg regimen vs five-intake LD/CD 500/125 mg without opicapone) of the same compound?
Its value is “no significant impact”.

Reference: paper PMC9804871, “Effect of Opicapone on Levodopa Pharmacokinetics in Patients with Fluctuating Parkinson's Disease” (Movement Disorders, 2022)
